Measurements reported in patent US8097625B2, “Combination of sedative and a neurotransmitter modulator, and methods for improving sleep quality and treating depression” (priority 2003, dated 2012).

Tested on: subjects with insomnia related to major depressive disorder
Experiment: DREAMDD clinical study: subjective sleep and daytime function (IVRS sleep diary)
Type: in vivo, human
Details: for Subjective Sleep Latency, Mean (SD) / Subjective Sleep Latency, Median / Subjective Total Sleep Time, Mean (SD) / Subjective Total Sleep Time, Median / Subjective Wake Time After Sleep Onset (WASO), Mean (SD) / Subjective Wake Time After Sleep Onset (WASO), Median: 3 mg nightly + fluoxetine, ITT
Experimental: Depression Response to Eszopiclone in Adults With Major Depressive Disorder (DREAMDD): A Randomized, Double-Blind, Placebo-Controlled, Parallel-Group, 8-Week, Safety and Efficacy Study of Eszopiclone 3 mg Compared to Placebo in Subjects with Insomnia Related to Major Depressive Disorder
This study was a double-blind randomized, placebo-controlled, parallel group study. […] All subjects must satisfy DSM-IV criteria for insomnia related to major depression.
In addition, subjects were randomized at Visit 3 (end of baseline) to treatment with one of the following nightly (at bedtime): eszopiclone (3 mg) or matching placebo.
Primary Analysis: The primary analysis was conducted using the ITT population for the primary efficacy variable, mean WASO during the first week of double-blind medication. This endpoint was computed by averaging the daily WASO values obtained via IVRS from Visit 3 to Visit 4. The analysis was conducted using an analysis of variance model (ANOVA) with treatment and site as fixed effects. The analysis was performed on rank-transformed data, using the SAS MIXED procedure. The cumulative distribution function by treatment was plotted.
Other Secondary Analyses: Analysis of the secondary subjective sleep parameters, the 1, 2, 3, 4, 6, and 8 week post-randomization and double-blind averages of WASO (except week 1 average, which is the primary efficacy endpoint), TST, SL, mean number of awakenings, depth and quality of sleep, daytime alertness, ability to concentrate, physical well-being and ability to function was conducted on rank-transformed data using the same method as for the primary analysis.
Sleep Diary Test: Patients are to call between 6 a.m. and 10 a.m. and answer the following questions. 1) Did you take study medication last night? 2) What time did you go to bed to go to sleep last night? 3) Did you fall asleep last night? (If No, go to question 10) 4) How long did it take you to fall asleep last night? Hours+Minutes? 5) Last night, did you wake up during the night, after falling asleep? 5a) How many times, did you wake up after falling asleep? 5b) After falling asleep for the first time, how much total time did you spend awake during the night? Hours+Minutes? 6) How long did you sleep last night? Hours+Minutes? 7) What time did you get out of bed to rise for the day? 8) What number best describes the quality of your sleep last night? (0=poor and 10=excellent) 9) How would you describe the depth of your sleep last night? (0=very light and 10=very deep) 10) What number best describes how you generally felt yesterday during the day? (0=very sleepy and 10=wide awake and alert) 11) What number best describes your ability to concentrate or think clearly during the day yesterday (0=poor, 10=excellent) 12) What number best describes your sense of physical well being yesterday? (0=poor, 10=excellent) 13) How would you describe your ability to function during the day yesterday? (0=poor and 10=excellent)
Methods: Patients (n=545) met DSM-IV criteria for MDD and insomnia, including reported sleep latency (SL)≧30 min (median 73 min), wake time after sleep onset (WASO) ≧45 min (median 90 min), and total sleep time (TST)≦6.5h (median 294 min). All patients received fluoxetine QAM, and were randomly assigned to double-blind treatment with eszopiclone 3 mg or placebo QHS for 8 weeks. Subjective sleep and daytime function were assessed weekly.

[1] = each treatment week, p<0.03, 3 mg QHS + fluoxetine QAM, 8 weeks

How did the “Subjective Sleep Latency, Mean (SD)” value (Double-Blind Average) turn out when CN1CCN(C(=O)OC2c3nccnc3C(=O)N2c2ccc(Cl)cn2)CC1 (single isomer, unassigned; (+)) [Eszopiclone, (+) 6-(5-chloro-2-pyridinyl)-6,7-dihydro-7-oxo-5H-pyrrolo[3,4b]pyrazin-5-yl 4-methylpiperazine-1-carboxylate] was run?
The value was 53.0 (52.6) Minutes.

What about the “Subjective Sleep Latency, Median” value (Double-Blind Average) of the same molecule?
The value was 39.3 min.

And the “Subjective Total Sleep Time, Mean (SD)” value (Double-Blind Average)?
Its value is 395.5 (66.9) Minutes.

What about the “Subjective Total Sleep Time, Median” value (Double-Blind Average) of the same molecule?
Its value is 400.0 min.

And the “Subjective Wake Time After Sleep Onset (WASO), Mean (SD)” value (Double-Blind Average)?
Its value is 72.6 (58.7) Minutes.

What about the “Subjective Wake Time After Sleep Onset (WASO), Median” value (Double-Blind Average) of the same molecule?
Its value is 57.4 min.

And the “Subjective Sleep Latency, Mean (SD)” value (Week 1)?
Its value is 62.6 (61.0) Minutes.

What about the “Subjective Sleep Latency, Median” value (Week 1) of the same molecule?
Its value is 43.3 min.

What about the “Subjective Total Sleep Time, Mean (SD)” value (Week 1) of the same molecule?
The value was 375.9 (76.5) Minutes.

What about the “Subjective Total Sleep Time, Median” value (Week 1) of the same molecule?
The value was 380.0 min.

And the “Subjective Sleep Latency, Mean (SD)” value (Week 2)?
Its value is 45.0 (52.2) Minutes.

And the “Subjective Sleep Latency, Median” value (Week 2)?
The value was 30.0 min.

What about the “Subjective Total Sleep Time, Mean (SD)” value (Week 2) of the same molecule?
The value was 393.6 (103.0) Minutes.

And the “Subjective Total Sleep Time, Median” value (Week 2)?
The value was 397.5 min.

What about the “Subjective Sleep Latency, Mean (SD)” value (Week 3) of the same molecule?
The value was 54.1 (100.9) Minutes.

And the “Subjective Sleep Latency, Median” value (Week 3)?
Its value is 25.0 min.

What about the “Subjective Total Sleep Time, Mean (SD)” value (Week 3) of the same molecule?
The value was 397.3 (88.1) Minutes.

What about the “Subjective Total Sleep Time, Median” value (Week 3) of the same molecule?
The value was 405.0 min.

What about the “Subjective Sleep Latency, Mean (SD)” value (Week 4) of the same molecule?
Its value is 40.5 (50.5) Minutes.

And the “Subjective Sleep Latency, Median” value (Week 4)?
The value was 24.2 min.

What about the “Subjective Total Sleep Time, Mean (SD)” value (Week 4) of the same molecule?
Its value is 395.6 (87.3) Minutes.

And the “Subjective Total Sleep Time, Median” value (Week 4)?
Its value is 390.0 min.

And the “Subjective Wake Time After Sleep Onset (WASO), Mean (SD)” value (Week 4)?
The value was 71.4 (80.3) Minutes.

And the “Subjective Wake Time After Sleep Onset (WASO), Median” value (Week 4)?
Its value is 42.5 min.

What about the “Subjective Sleep Latency, Mean (SD)” value (Week 6) of the same molecule?
The value was 43.8 (77.3) Minutes.

What about the “Subjective Sleep Latency, Median” value (Week 6) of the same molecule?
Its value is 20.0 min.

What about the “Subjective Total Sleep Time, Mean (SD)” value (Week 6) of the same molecule?
The value was 408.5 (84.3) Minutes.

And the “Subjective Total Sleep Time, Median” value (Week 6)?
Its value is 420.0 min.

And the “Subjective Wake Time After Sleep Onset (WASO), Mean (SD)” value (Week 6)?
Its value is 76.5 (88.1) Minutes.

What about the “Subjective Wake Time After Sleep Onset (WASO), Median” value (Week 6) of the same molecule?
The value was 46.3 min.

And the “Subjective Sleep Latency, Mean (SD)” value (Week 8)?
Its value is 42.4 (42.3) Minutes.

And the “Subjective Sleep Latency, Median” value (Week 8)?
The value was 30.0 min.

What about the “Subjective Total Sleep Time, Mean (SD)” value (Week 8) of the same molecule?
Its value is 405.9 (80.6) Minutes.

And the “Subjective Total Sleep Time, Median” value (Week 8)?
Its value is 411.4 min.

What about the “Subjective Wake Time After Sleep Onset (WASO), Mean (SD)” value (Week 8) of the same molecule?
The value was 63.8 (74.1) Minutes.

And the “Subjective Wake Time After Sleep Onset (WASO), Median” value (Week 8)?
The value was 43.1 min.

And the “WASO compared to placebo” value (Weeks 1, 3-5, and 7-8, p<0.04, 3 mg QHS + fluoxetine QAM)?
Its value is “significantly lower”.

And the “ratings in sleep quality and depth compared to placebo” value (across the treatment period, p<0.005, 3 mg QHS + fluoxetine QAM)?
Its value is “higher ratings”.

And the “sleep latency (SL) compared to placebo” value [1]?
The value was “significantly lower”.

What about the “total sleep time (TST) compared to placebo” value [1] of the same molecule?
Its value is “greater”.

And the improvement in sleep (patients with depression-related secondary insomnia, co-administration with fluoxetine)?
The improvement in sleep was “rapid and sustained improvement in sleep”.

What about the “ratings of daytime alertness, ability to concentrate, and well-being compared to placebo” value (p≦0.02, 3 mg QHS + fluoxetine QAM) of the same molecule?
The value was “higher ratings”.
